pKi: −log10 of the molar value.
What follows are compounds tested against T1, dopamine D4 receptor (Homo sapiens, UniProt P21917) (assay: Binding to the D4 receptor, [3H]-spiperone displacement, D4-CHO membranes). Conditions: not given.
T1 construct: expressed in transfected cells; host or cells: CHO (Chinese Hamster Ovary) cells, D4-CHO, crude membranes
T1 sequence (P21917 1-419): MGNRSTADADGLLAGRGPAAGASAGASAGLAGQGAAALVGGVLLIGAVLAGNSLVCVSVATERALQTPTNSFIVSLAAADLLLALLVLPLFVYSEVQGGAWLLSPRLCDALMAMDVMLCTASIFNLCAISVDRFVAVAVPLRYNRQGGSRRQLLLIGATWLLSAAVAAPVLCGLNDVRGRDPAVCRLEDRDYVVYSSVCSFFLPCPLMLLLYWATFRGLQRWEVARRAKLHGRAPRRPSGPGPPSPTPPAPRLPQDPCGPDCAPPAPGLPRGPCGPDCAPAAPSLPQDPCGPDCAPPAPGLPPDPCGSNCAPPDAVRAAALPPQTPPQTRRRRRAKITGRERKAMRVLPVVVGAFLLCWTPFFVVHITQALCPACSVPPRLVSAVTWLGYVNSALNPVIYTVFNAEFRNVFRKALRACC
Description: The compounds were characterized by a comparison in binding behaviour to the D4 receptor and to the D2 receptor. CHO cells (Chinese Hamster Ovary) were used in the test. Crude membranes were isolated from D4 --CHO and D2 --CHO cells by ultracentrifugation and were stored at -80° C. After thawing and homogenization in a buffer solution (50 mM Tris, 1 mM EDTA, 5 mM KCI, 1.5 mM CaCI2, 4 mM MgCI2, pH 7.4) they were incubated at room temperature for 90 minutes with 200 pM [^3 H]-spiperone and increasing concentrations (1×10^-11 M to 1×10^-4 M) of the test compound. A non-specific binding by the incubation was established in the presence of 1×10^-5 M (+)-butaclamol.
The unbound radioligand was removed by filtration through a GFIC glass filter and the bound radioactivity was determined by flash emission in a Packard Top Count.
It was determined using ^3 H-spiperone. The calculation of the value was effected with a ligand.
`Nc1ccccc1C(=O)OC1CCN(Cc2ccccc2)CC1` [A/5a, 1-Benzyl-piperidin-4-yl 2-amino-benzoate] showed a pKi of 8.40.

Same assay, conditions: [3H]-spiperone 200 pM, D4-CHO crude membranes, room temperature, 90 minutes, pH 7.4; read-out: Ki at D4
`Cc1ccc(C(=O)OC2CCN(Cc3cccc(N)c3)CC2)cc1` [Q/73a, 1-(3-Amino-benzyl)-piperidin-4-yl 4-methyl-benzoate] showed a pKi of 7.72.
With `O=C(OC1CCN(Cc2cccc([N+](=O)[O-])c2)CC1)c1ccccc1` [M/70b, 1-(3-Nitro-benzyl)-piperidin-4-yl benzoate] the pKi was 7.89.
Compound `Cc1ccc(C(=O)OC2CCN(Cc3ccccc3N)CC2)cc1` [R/69a, 1-(2-Amino-benzyl)-piperidin-4-yl 4-methyl-benzoate] has a pKi of 7.76.
`O=C(OC1CCN(Cc2ccc(F)cc2)CC1)c1ccccc1` [O/64b, 1-(4-Fluoro-benzyl)-piperidin-4-yl benzoate] showed a pKi of 7.74.
For `Cc1ccc(C(=O)OC2CCN(Cc3cccc([N+](=O)[O-])c3)CC2)cc1` [P/71a, 1-(3-Nitro-benzyl)-piperidin-4-yl 4-methyl-benzoate], the pKi was 7.72.
With `Cc1ccccc1C(=O)OC1CCN(Cc2ccccc2)CC1` [E/24a, 1-Benzyl-piperidin-4-yl 2-methyl-benzoate] the pKi was 8.22.
Work on `Cc1ccc(CN2CCC(OC(=O)c3ccc(C)cc3)CC2)cc1` [L/79a, 1-(4-Methyl-benzyl)-piperidin-4-yl 4-methyl-benzoate] yielded a pKi of 8.28.
`O=C(OC1CCN(Cc2ccc(Cl)cc2)CC1)c1ccc(Cl)cc1` [J/82a, 1-(4-Chloro-benzyl)-piperidin-4-yl 4-chloro-benzoate] showed a pKi of 7.74.
Work on `Cc1ccc(C(=O)OC2CCN(Cc3ccccc3)CC2)cc1` [F/25a, 1-Benzyl-piperidin-4-yl 4-methyl-benzoate] yielded a pKi of 8.10.
`O=C(OC1CCN(Cc2ccc(Cl)cc2)CC1)c1ccccc1` [H/58c, 1-(4-Chloro-benzyl)-piperidin-4-yl benzoate] gave a pKi of 8.14.
`O=C(OC1CCN(Cc2ccccc2)CC1)c1ccc(I)cc1` [D/22a, 1-Benzyl-piperidin-4-yl 4-iodo-benzoate] gave a pKi of 7.82.
In the case of `Nc1ccc(C(=O)OC2CCN(Cc3ccccc3)CC2)nc1` [B/8b, 1-benzyl-piperidin-4-yl 5-amino-picolinate], the pKi was 7.79.
`Cc1ccc(CN2CCC(OC(=O)c3ccccc3)CC2)cc1` [k/78b, 1-(4-Methyl-benzyl)-piperidin-4-yl benzoate] gave a pKi of 8.42.
Compound `Cc1ccc(C(=O)OC2CCN(Cc3ccc(Cl)cc3)CC2)cc1` [I/59a, 1-(4-Chloro-benzyl)-piperidin-4-yl 4-methyl-benzoate] has a pKi of 7.82.
For `COc1ccc(CN2CCC(OC(=O)c3ccccc3)CC2)cc1` [S/80c, 1-(4-Methoxy-benzyl)-piperidin-4-yl benzoate], the pKi was 7.82.
`Cc1ccc(C(=O)OC2CCN(Cc3ccccc3)CC2)c(C)c1` [N/46a, 1-benzyl-piperidin-4-yl 2,4-dimethyl-benzoate] showed a pKi of 8.05.
In the case of `O=C(OC1CCN(Cc2ccccc2)CC1)c1ccc(Br)cc1` [C/19b, 1-Benzyl-piperidin-4-yl 4-bromo-benzoate], the pKi was 8.00.
`CNc1ccc(C(=O)OC2CCN(Cc3ccccc3)CC2)cc1` [G/32b, 1-Benzyl-piperidin-4-yl 4-methylamino-benzoate] was tested, and the pKi was 8.30.
